Data from patent US8921267B2, “Safening 6-(trisubstituted phenyl)-4-amino-2-pyridinecarboxylate herbicide injury on cereal crops” (Dow AgroSciences LLC, priority 2008, dated 2014).

Legend:
[1] = tested on: wheat (Triticum aestivum L; TRZAS); test: Postemergence herbicidal safening, greenhouse, visual injury: wheat; format: in vivo
Procedure: (§1) Evaluation of Postemergence Herbicidal Safening in Cereal Crops
(§2) Seeds of the desired test plant species were planted in Sun Gro MetroMix® 306 planting mixture, which typically has a pH of 6.0 to 6.8 and an organic matter content of about 30 percent, in plastic pots with a surface area of 103.2 square centimeters (cm^2). When required to ensure good germination and healthy plants, a fungicide treatment and/or other chemical or physical treatment was applied. The plants were grown for 7-36 days (d) in a greenhouse with an approximate 14-hour (h) photoperiod which was maintained at about 18° C. during the day and 17° C. during the night. Nutrients and water were added on a regular basis and supplemental lighting was provided with overhead metal halide 1000-Watt lamps as necessary. The plants were employed for testing when they reached the second or third true leaf stage.
(§3) Weighed amounts of esters (methyl) or salts (TEA [triethylammonium], K [potassium]) of 4-amino-3-chloro-6-(4-chloro-2-fluoro-3-methoxyphenyl)pyridine-2-carboxylic acid (Compound 1) were dissolved in a volume of 97:3 volume/volume (v/v) acetone/dimethylsulfoxide (DMSO) to obtain stock solutions. […] The concentrated stock solutions were diluted with an aqueous mixture of 1.5% v/v of Agri-dex crop oil concentrate to provide the appropriate application rates. Compound requirements are based upon a 12 mL application volume at a rate of 187 liters per hectare (L/ha). Stocks solutions of the safeners were prepared following the same procedure. Spray solutions of the safeners and experimental compound mixtures were prepared by adding the stock solutions to the appropriate amount of dilution solution to form a 12 mL spray solution with active ingredients in two-way combinations. Formulated compounds were applied to the plant material with an overhead Mandel track sprayer equipped with 8002E nozzles calibrated to deliver 187 L/ha over an application area of 0.503 square meters (m^2) at a spray height of 18 inches (43 centimeters (cm)) above average plant canopy. Control plants were sprayed in the same manner with the solvent blank.
(§4) The treated plants and control plants were placed in a greenhouse as described above and watered by sub-irrigation to prevent wash-off of the test compounds. After 20-22 d, the condition of the test plants as compared with that of the control plants was determined visually and scored on a scale of 0 to 100 percent where 0 corresponds to no injury and 100 corresponds to complete kill.
(§5) Colby's equation was used to determine the herbicidal effects expected from the mixtures (Colby, S. R. Calculation of the synergistic and antagonistic response of herbicide combinations. Weeds 1967, 15, 20-22.).
(§6) The following equation was used to calculate the expected activity of mixtures containing two active ingredients, A and B: Expected=A+B−(A×B/100)
(§7) A=observed efficacy of active ingredient A at the same concentration as used in the mixture.
(§8) B=observed efficacy of active ingredient B at the same concentration as used in the mixture.

[2] = tested on: wheat (Triticum aestivum L; TRZAW); test: Postemergence herbicidal safening, greenhouse, visual injury: wheat (TRZAW); format: in vivo
Procedure: as §1, §2, §3, §4, §5, §6, §7, §8

barley (HORVW) = test: Postemergence herbicidal safening, greenhouse, visual injury: barley (HORVW)
[3] = tested on: durum wheat (Triticum durum L; TRZDU); test: Postemergence herbicidal safening, greenhouse, visual injury: durum wheat; format: in vivo
Procedure: as §1, §2, §3, §4, §5, §6, §7, §8

[4] = tested on: barley (Hordeum vulgare L; HORVS); test: Postemergence herbicidal safening, greenhouse, visual injury: barley; format: in vivo
Procedure: as §1, §2, §3, §4, §5, §6, §7, §8

[5] = tested on: corn poppy (Papaver rhoeas L; PAPRH); test: Postemergence herbicidal activity, greenhouse, visual injury: corn poppy; format: in vivo
Procedure: as §1, §2, §3, §4, §5, §6, §7, §8

[6] = tested on: purple deadnettle (Lamium purpureum L; LAMPU); test: Postemergence herbicidal activity, greenhouse, visual injury: purple deadnettle; format: in vivo; design: key: visual injury, 0–100%: 0 = no injury, 100 = complete kill
Procedure: as §1, §2, §3, §4, §5, §6, §7, §8

[7] = Compound 1 Methyl ester 35 g/ha alone

SMILES	TRZAW Ob (Observed values) ([2]; safener 4.4 g/ha alone)	TRZAW Ob (Observed values) ([2]; safener 8.8 g/ha alone)	TRZAW Ob (Observed values) ([2]; safener 17.5 g/ha alone)	TRZAW Ob (Observed values) ([2]; safener 35 g/ha alone)	HORVW Ob (Observed values) (barley (HORVW); safener 4.4 g/ha alone)	HORVW Ob (Observed values) (barley (HORVW); safener 8.8 g/ha alone)	HORVW Ob (Observed values) (barley (HORVW); safener 17.5 g/ha alone)	HORVW Ob (Observed values) (barley (HORVW); safener 35 g/ha alone)	TRZDU Ob (Observed values) ([3]; safener 4.4 g/ha alone)	TRZDU Ob (Observed values) ([3]; safener 8.8 g/ha alone)	TRZDU Ob (Observed values) ([3]; safener 17.5 g/ha alone)	TRZDU Ob (Observed values) ([3]; safener 35 g/ha alone)	PAPRH Ob (Observed values) ([5]; safener 4.4 g/ha alone)	PAPRH Ob (Observed values) ([5]; safener 8.8 g/ha alone)	PAPRH Ob (Observed values) ([5]; safener 17.5 g/ha alone)	PAPRH Ob (Observed values) ([5]; safener 35 g/ha alone)	LAMPU Ob (Observed values) ([6]; safener 4.4 g/ha alone)	LAMPU Ob (Observed values) ([6]; safener 8.8 g/ha alone)	LAMPU Ob (Observed values) ([6]; safener 17.5 g/ha alone)	LAMPU Ob (Observed values) ([6]; safener 35 g/ha alone)	also measured
COC(=O)c1nc(-c2ccc(Cl)c(OC)c2F)cc(N)c1Cl [1 Methyl ester]																					TRZAS Ob (Observed values) [1, 7]: 50; TRZAW Ob (Observed values) [2, 7]: 35%; HORVW Ob (Observed values) (barley (HORVW); [7]): 50%; TRZDU Ob (Observed values) [3, 7]: 42%; HORVS Ob (Observed values) [4, 7]: 33; PAPRH Ob (Observed values) [5, 7]: 97; LAMPU Ob (Observed values) [6, 7]: 97
O=C(C(Cl)Cl)N1CCOC12CCCCC2 [AD-67]	0%	0%	0%	0%	0%	0%	0%	0%	0%	0%	0%	0%	0	0	0	0	0	0	0	0	
O=C(O)C1=NOC(c2ccccc2)(c2ccccc2)C1 [Isoxadifen]	0%	0%	0%	0%	0%	0%	0%	0%	0%	0%	0%	0%	0	0	0	0	0	0	0	0	TRZAS Ob (Observed values) ([1]; safener 4.4 g/ha alone): 0; TRZAS Ob (Observed values) ([1]; safener 8.8 g/ha alone): 0; TRZAS Ob (Observed values) ([1]; safener 17.5 g/ha alone): 0; TRZAS Ob (Observed values) ([1]; safener 35 g/ha alone): 0; HORVS Ob (Observed values) ([4]; safener 4.4 g/ha alone): 0; HORVS Ob (Observed values) ([4]; safener 8.8 g/ha alone): 0; HORVS Ob (Observed values) ([4]; safener 17.5 g/ha alone): 0; HORVS Ob (Observed values) ([4]; safener 35 g/ha alone): 0
